Results as given in US11174253B2, “Compound and pharmaceutical composition containing the same” (ALPHALA CO., LTD., priority 2017, dated 2021).

These molecules were tested on hepatocellular carcinoma cell line Hep3B (assay: Growth inhibition of Hep3B cells, 48 hr treatment, Hoechst 33342 nucleus count (GE InCell 2200)). Settings: Homo sapiens, Table 1, ratio of number of tumor cells treated with 10 μM compound to non-treated cells.
Assay type: cell-based
Protocol: The potency of selected compounds was defined by the growth inhibition ability to the hepatocellular carcinoma cell line Hep3B. The Hep3B cells were treated with selected compounds for 48 hr under 37° C., 5% CO2, and 95% relative humidity.
The number of treated cells was determined by GE InCell 2200 system, and treated cells were stained with Hoechst 33342 which can reveal the remained nucleus in culture plate. The proportion of survival cells then were calculated with the ratio of treated/non-treated cells. The growth inhibition/cytotoxic effect of selected compounds were evaluated by the following protocol of NCI-60 screening platform. The human tumor cell lines are plating on a 96 well plate in a fixed density 24 hr prior compound treatment. Compounds with multiple concentrations are then added into each well for further 48 hr incubation. Cell viability is assessed by MTS method and the potency of compound is represented by GI50 and LC50 calculated by MTS result.
Herein, the “Ratio in 10 μM (%)” in the following Tables 1-6 refers to the ratio of the number of tumor cells treated with 10 μM of selected compounds to the number of non-treated tumer cells.
In the case of `Nc1nc2ccc(CC(=O)Nc3nnc(-c4ccc([N+](=O)[O-])cc4)s3)cc2s1` [Compound 1-8, 2-(2-aminobenzo[d]thiazol-6-yl)-N-(5-(4-nitrophenyl)-1,3,4-thiadiazol-2-yl)acetamide], the viability at 10 µM is reported as 76%.
In the case of `CN(C)c1ccc(-c2nnc(NC(=O)Cc3ccc4nc(N)sc4c3)s2)cc1` [Compound 1-9, 2-(2-aminobenzo[d]thiazol-6-yl)-N-(5-(4-(dimethylamino)phenyl)-1,3,4-thiadiazol-2-yl)acetamide], the viability at 10 µM is reported as 60%.
Work on `Nc1nc2ccc(CC(=O)Nc3nnc(-c4ccccc4OC(F)(F)F)s3)cc2s1` [Compound 1-11, 2-(2-aminobenzo[d]thiazol-6-yl)-N-(5-(2-(trifluoromethoxy)phenyl)-1,3,4-thiadiazol-2-yl)acetamide] yielded a viability at 10 µM of 68%.
Work on `Nc1nc2ccc(CC(=O)Nc3nnc(-c4ccc(I)cc4)s3)cc2s1` [Compound 1-12, 2-(2-aminobenzo[d]thiazol-6-yl)-N-(5-(4-iodophenyl)-1,3,4-thiadiazol-2-yl)acetamide] yielded a viability at 10 µM of 67%.
With `Nc1nc2ccc(CC(=O)Nc3nnc(-c4ccc(Br)c([N+](=O)[O-])c4)s3)cc2s1` [Compound 1-13, 2-(2-aminobenzo[d]thiazol-6-yl)-N-(5-(4-bromo-3-nitrophenyl)-1,3,4-thiadiazol-2-yl)acetamide] the viability at 10 µM was 60%.
`CC(C)Oc1ccc(-c2nnc(NC(=O)Cc3ccc4nc(N)sc4c3)s2)cc1` [Compound 1-14, 2-(2-aminobenzo[d]thiazol-6-yl)-N-(5-(4-isopropoxyphenyl)-1,3,4-thiadiazol-2-yl)acetamide] gave a viability at 10 µM of 71%.
Molecule `CCCCOc1ccc(-c2nnc(NC(=O)Cc3ccc4nc(N)sc4c3)s2)cc1` [Compound 1-21, 2-(2-aminobenzo[d]thiazol-6-yl)-N-(5-(4-butoxyphenyl)-1,3,4-thiadiazol-2-yl)acetamide] has a viability at 10 µM of 81%.
Molecule `CCOc1cc(OCC)c(-c2nnc(NC(=O)Cc3ccc4nc(N)sc4c3)s2)c(OCC)c1` [Compound 1-24, 2-(2-aminobenzo[d]thiazol-6-yl)-N-(5-(2,4,6-triethoxyphenyl)-1,3,4-thiadiazol-2-yl)acetamide] has a viability at 10 µM of 88%.
`CCOc1ccc(-c2nnc(NC(=O)Cc3ccc4nc(N)sc4c3)s2)nc1` [Compound 1-30, 2-(2-aminobenzo[d]thiazol-6-yl)-N-(5-(5-ethoxypyridin-2-yl)-1,3,4-thiadiazol-2-yl)acetamide] showed a viability at 10 µM of 37%.
With `CCCc1ccc(-c2nnc(NC(=O)Cc3ccc4nc(N)sc4c3)s2)cc1` [Compound 1-33, 2-(2-aminobenzo[d]thiazol-6-yl)-N-(5-(4-propylphenyl)-1,3,4-thiadiazol-2-yl)acetamide] the viability at 10 µM was 44%.
`CCOc1ccncc1-c1nnc(NC(=O)Cc2ccc3nc(N)sc3c2)s1` [Compound 1-34, 2-(2-aminobenzo[d]thiazol-6-yl)-N-(5-(4-ethoxypyridin-3-yl)-1,3,4-thiadiazol-2-yl)acetamide] showed a viability at 10 µM of 78%.
In the case of `CCOc1ccc(-c2nnc(N(C)C(=O)Cc3ccc4nc(N)sc4c3)s2)c(OCC)c1` [Compound 1-36, 2-(2-aminobenzo[d]thiazol-6-yl)-N-(5-(2,4-diethoxyphenyl)-1,3,4-thiadiazol-2-yl)-N-methylacetamide], the viability at 10 µM is reported as 53%.

Same assay, conditions: Homo sapiens, Table 2, ratio of number of tumor cells treated with 10 μM compound to non-treated cells
`Nc1nc2ccc(CC(=O)Nc3nnc(-c4ccccc4OC(F)(F)F)o3)cc2s1` [Compound 2-4, 2-(2-aminobenzo[d]thiazol-6-yl)-N-(5-(2-(trifluoromethoxy)phenyl)-1,3,4-oxadiazol-2-yl)acetamide] showed a viability at 10 µM of 88%.

Same assay, conditions: Homo sapiens, Table 3, ratio of number of tumor cells treated with 10 μM compound to non-treated cells
For `COc1ccc(-c2sc(NC(=O)Cc3ccc4nc(N)sc4c3)nc2-c2ccc(C)cc2)cc1OC` [Compound 3-5, 2-(2-aminobenzo[d]thiazol-6-yl)-N-(5-(3,4-dimethoxyphenyl)-4-(p-tolyl)thiazol-2-yl)acetamide], the viability at 10 µM was 85%.
`CCCOc1ccc(-c2nc(NC(=O)Cc3ccc4nc(N)sc4c3)sc2-c2ccc(F)cc2)cc1` [Compound 3-6, 2-(2-aminobenzo[d]thiazol-6-yl)-N-(5-(4-fluorophenyl)-4-(4-propoxyphenyl)thiazol-2-yl)acetamide] showed a viability at 10 µM of 83%.
`Cc1ccc(-c2nc(NC(=O)Cc3ccc4nc(N)sc4c3)sc2-c2cc(C(F)(F)F)cc(C(F)(F)F)c2)cc1` [Compound 3-7, 2-(2-aminobenzo[d]thiazol-6-yl)-N-(5-(3,5-bis(trifluoromethyl)phenyl)-4-(p-tolyl)thiazol-2-yl)acetamide] gave a viability at 10 µM of 78%.
Molecule `COc1cccc(-c2nc(NC(=O)Cc3ccc4nc(N)sc4c3)sc2Br)c1` [Compound 3-8, 2-(2-aminobenzo[d]thiazol-6-yl)-N-(5-bromo-4-(3-methoxyphenyl)thiazol-2-yl)acetamide] has a viability at 10 µM of 84%.
Work on `CCOc1ccc(-c2cnc(NC(=O)Cc3ccc4nc(N)sc4c3)s2)cc1` [Compound 3-11, 2-(2-aminobenzo[d]thiazol-6-yl)-N-(5-(4-ethoxyphenyl)thiazol-2-yl)acetamide] yielded a viability at 10 µM of 60%.
`CCOc1ccc(-c2csc(NC(=O)Cc3ccc4nc(N)sc4c3)n2)c(OCC)c1` [Compound 3-12, 2-(2-aminobenzo[d]thiazol-6-yl)-N-(4-(2,4-diethoxyphenyl)thiazol-2-yl)acetamide] gave a viability at 10 µM of 50%.
`CCOc1ccc(-c2nc(NC(=O)Cc3ccc4nc(N)sc4c3)sc2Oc2ccccc2)cc1` [Compound 3-13, 2-(2-aminobenzo[d]thiazol-6-yl)-N-(4-(4-ethoxyphenyl)-5-phenoxythiazol-2-yl)acetamide] showed a viability at 10 µM of 58%.
For `CCOc1ccc(-c2nc(NC(=O)Cc3ccc4nc(N)sc4c3)sc2Cc2ccccc2)cc1` [Compound 3-14, 2-(2-aminobenzo[d]thiazol-6-yl)-N-(5-benzyl-4-(4-ethoxyphenyl)thiazol-2-yl)acetamide], the viability at 10 µM was 76%.

Same assay, conditions: Homo sapiens, Table 4, ratio of number of tumor cells treated with 10 μM compound to non-treated cells
`CCOc1ccc(-c2ccc(NC(=O)Cc3ccc4nc(N)sc4c3)s2)cc1` [Compound 4-2, 2-(2-aminobenzo[d]thiazol-6-yl)-N-(5-(4-ethoxyphenyl)thiophen-2-yl)acetamide] was tested, and the viability at 10 µM was 89%.
In the case of `CCOc1ccc(-c2cnc(NC(=O)Cc3ccc4nc(N)sc4c3)[nH]2)c(OCCOC)c1` [Compound 4-3, 2-(2-aminobenzo[d]thiazol-6-yl)-N-(5-(4-ethoxy-2-(2-methoxyethoxy)phenyl)-1H-imidazol-2-yl)acetamide], the viability at 10 µM is reported as 40%.
`CCOc1ccc(-c2cnc(NC(=O)Cc3ccc4nc(N)sc4c3)[nH]2)c(OCC)c1` [Compound 4-4, 2-(2-aminobenzo[d]thiazol-6-yl)-N-(5-(2,4-diethoxyphenyl)-1H-imidazol-2-yl)acetamide] gave a viability at 10 µM of 40%.

Same assay, conditions: Homo sapiens, Table 5, ratio of number of tumor cells treated with 10 μM compound to non-treated cells
Molecule `O=C(Nc1nc(-c2ccc(Br)cc2)c(Oc2ccccc2)s1)c1ccc([N+](=O)[O-])s1` [Compound 5-1, N-(4-(4-bromophenyl)-5-phenoxythiazol-2-yl)-5-nitrothiophene-2-carboxamide] has a viability at 10 µM of 66%.
For `O=C(Nc1nc(-c2cccc([N+](=O)[O-])c2)c(Oc2ccccc2)s1)c1ccc([N+](=O)[O-])s1` [Compound 5-3, 5-nitro-N-(4-(3-nitrophenyl)-5-phenoxythiazol-2-yl)thiophene-2-carboxamide], the viability at 10 µM was 82%.
`COc1cccc(-c2nc(NC(=O)c3ccc([N+](=O)[O-])s3)sc2Oc2ccccc2)c1` [Compound 5-4, N-(4-(3-methoxyphenyl)-5-phenoxythiazol-2-yl)-5-nitrothiophene-2-carboxamide] showed a viability at 10 µM of 63%.
